Measured values taken from ChEMBL document CHEMBL5233255, “Natural and nature-inspired stilbenoids as antiviral agents” (Eur J Med Chem, 2020).
pEC50, pIC50: −log10 of the molar value. In brackets after ≈: the same amount, converted by molar mass.

How the values were obtained:
Human alphaherpesvirus 1 [1] = experiment: Antiviral activity against HSV-1 clinical isolate infected in African green monkey Vero cells incubated for 3 days by plaque reduction assay; type: functional, organism-based; details: Human alphaherpesvirus 1, Vero, 72 h
Human alphaherpesvirus 2 [2] = experiment: Antiviral activity against HSV-2 333 infected in African green monkey Vero cells incubated for 3 days by plaque reduction assay; type: functional, organism-based; details: Human alphaherpesvirus 2, 333, Vero, 72 h
[3] = Selectivity index, ratio of CC50 for cytotoxicity against African green monkey Vero cells to IC50 for antiviral activity against HSV-2 333 infected in African green monkey Vero cells; type: toxicity, cell-based; details: read-out: Ratio CC50/IC50
[4] = Selectivity index, ratio of CC50 for cytotoxicity against African green monkey Vero cells to IC50 for antiviral activity against HSV-1 15577 infected in African green monkey Vero cells; type: toxicity, cell-based; details: read-out: Ratio CC50/IC50
Human alphaherpesvirus 1 [5] = experiment: Antiviral activity against HSV-1 15577 infected in African green monkey Vero cells incubated for 3 days by plaque reduction assay; type: functional, organism-based; details: Human alphaherpesvirus 1, 15577, Vero, 72 h
[6] = Selectivity index, ratio of CC50 for cytotoxicity against African green monkey Vero cells to IC50 for antiviral activity against HSV-1 clinical isolate infected in African green monkey Vero cells; type: toxicity, cell-based; details: read-out: Ratio CC50/IC50
[7] = Cytotoxicity against MDCK cells assessed as reduction in cell viability incubated for 72 hrs by MTT assay; type: toxicity, cell-based, Canis lupus familiaris; details: dog
Influenza A virus [8] = experiment: Antiviral activity against influenza A virus A/PR/8/34 (H1N1) infected in MDCK cells preincubated 2 hrs followed by viral infection and measured after 24 hrs by MTT assay; type: functional, organism-based
[9] = system: Human immunodeficiency virus 1; experiment: Antiviral activity against HIV-1 infected in HEK293T cells; type: functional, organism-based; details: Human immunodeficiency virus 1, HEK-293T
[10] = Cytotoxicity against HEK293T cells; type: toxicity, cell-based, HEK-293T; details: human, read-out: TC50 (the source's name)
[11] = Selectivity index, ratio of TC50 for cytotoxicity against HEK293T cells to EC50 for antiviral activity against HIV-1 infected in HEK293T cells; type: toxicity, cell-based; details: human
[12] = system: Human immunodeficiency virus 1; experiment: Antiviral activity against HIV-1 infected in human macrophages assessed as inhibition of viral replication; type: functional; details: Human immunodeficiency virus 1, Macrophage
[13] = system: Human immunodeficiency virus 1; experiment: Antiviral activity against HIV-1 infected in human leucocytes assessed as inhibition of viral replication; type: functional; details: Human immunodeficiency virus 1, Leucocyte
Human alphaherpesvirus 2 [14] = experiment: Antiviral activity against HSV-2 VR-734 infected in human NCI-H1299 cells; type: functional, organism-based; details: Human alphaherpesvirus 2, VR-734, NCI-H1299
Human alphaherpesvirus 2 [15] = experiment: Antiviral activity against HSV-2 VR-734 infected in human HeLa cells; type: functional, organism-based; details: Human alphaherpesvirus 2, VR-734, HeLa
Human alphaherpesvirus 2 [16] = experiment: Antiviral activity against HSV-2 VR-734 infected in African green monkey Vero cells assessed as inhibition of viral replication measured after 72 hrs by MTT assay; type: functional, organism-based; details: Human alphaherpesvirus 2, VR-734, Vero
[17] = Selectivity index, ratio of CC50 for cytotoxicity against human TZM-bl cells to EC50 for antiviral activity against HIV-1 Bal (R5) infected in human TZM-bl cells; type: toxicity, cell-based; details: read-out: Ratio CC50/EC50
[18] = Selectivity index, ratio of CC50 for cytotoxicity against human TZM-bl cells to EC50 for antiviral activity against HIV-1 NL 4-3 (X4) infected in human TZM-bl cells; type: toxicity, cell-based; details: read-out: Ratio CC50/EC50
[19] = Cytotoxicity against human MT4 cells by MTT assay; type: toxicity, cell-based
[20] = Cytotoxicity against human TZM-bl cells by luciferase assay; type: toxicity, cell-based
[21] = Selectivity index, ratio of CC50 for cytotoxicity against human MT4 cells to EC50 for antiviral activity against HIV-1 NL 4-3 (X4) infected in human MT4 cells; type: toxicity, cell-based; details: read-out: Ratio CC50/EC50
[22] = system: Human immunodeficiency virus 1; experiment: Antiviral activity against HIV-1 NL 4-3 (X4) infected in human TZM-bl cells assessed as inhibition of virus induced cytopathic effect by luciferase based assay; type: functional, organism-based; details: Human immunodeficiency virus 1, NL 4-3 (X4)
[23] = system: Human immunodeficiency virus 1; experiment: Antiviral activity against HIV-1 Bal (R5) infected in human TZM-bl cells assessed as inhibition of virus induced cytopathic effect by luciferase based assay; type: functional, organism-based; details: Human immunodeficiency virus 1, Bal (R5)
[24] = system: Human immunodeficiency virus 1; experiment: Antiviral activity against HIV-1 NL 4-3 (X4) infected in human MT4 cells assessed as inhibition of virus induced cytopathic effect by MTT assay; type: functional, organism-based; details: Human immunodeficiency virus 1, NL 4-3 (X4)
Hepatitis C virus [25] = experiment: Antiviral activity against Hepatitis C virus genotype 2 J6/JFH1 infected in human Huh7.5 cells assessed as reduction in viral replication treated for 72 hrs by qRT-PCR analysis; type: functional, organism-based, Hepacivirus hominis; details: genotype 2 J6/JFH1, Huh7.5, 72 h
Hepatitis C virus [26] = experiment: Antiviral activity against Hepatitis C virus genotype 1 Bart791 infected in human Huh7.5 cells assessed as reduction in viral replication treated for 72 hrs by qRT-PCR analysis; type: functional, organism-based, Hepacivirus hominis; details: genotype 1 Bart791, Huh7.5, 72 h
[27] = Cytotoxicity against human Huh7.5 cells infected with Hepatitis C virus assessed as reduction in cell viability; type: toxicity, cell-based, Huh-7.5
Hepatitis C virus [28] = experiment: Antiviral activity against Hepatitis C virus genotype 2 Rluc-J6/JFH1 infected in human Huh7.5 cells assessed as reduction in viral replication treated for 72 hrs by qRT-PCR analysis; type: functional, organism-based, Hepacivirus hominis; details: genotype 2 Rluc-J6/JFH1, Huh7.5, 72 h
Hepatitis C virus [29] = experiment: Antiviral activity against Hepatitis C virus infected in human Huh7.5 cells assessed as reduction in viral replication; type: functional, organism-based, Hepacivirus hominis
[30] = Selectivity index, ratio of CC50 for cytotoxicity against MDCK cells to IC50 for influenza A virus A/Guangdong/243/72 ([…]) infected in MDCK cells; type: toxicity, cell-based; details: dog, read-out: Ratio CC50/IC50
Influenza A virus [31] = experiment: Antiviral activity against influenza A virus A/Guangdong/243/72 ([…]) infected in MDCK cells assessed as inhibition of virus-induced cytopathic effect; type: functional, organism-based
[32] = molecular target: Neuraminidase (Influenza A virus (A/Puerto Rico/8/1934(H1N1)), UniProt P03468); experiment: Inhibition of influenza A virus A/PR/8/34 (H1N1) neuraminidase
Neuraminidase (Influenza A virus (A/Puerto Rico/8/1934(H1N1)), UniProt P03468), sequence (P03468 whole entry): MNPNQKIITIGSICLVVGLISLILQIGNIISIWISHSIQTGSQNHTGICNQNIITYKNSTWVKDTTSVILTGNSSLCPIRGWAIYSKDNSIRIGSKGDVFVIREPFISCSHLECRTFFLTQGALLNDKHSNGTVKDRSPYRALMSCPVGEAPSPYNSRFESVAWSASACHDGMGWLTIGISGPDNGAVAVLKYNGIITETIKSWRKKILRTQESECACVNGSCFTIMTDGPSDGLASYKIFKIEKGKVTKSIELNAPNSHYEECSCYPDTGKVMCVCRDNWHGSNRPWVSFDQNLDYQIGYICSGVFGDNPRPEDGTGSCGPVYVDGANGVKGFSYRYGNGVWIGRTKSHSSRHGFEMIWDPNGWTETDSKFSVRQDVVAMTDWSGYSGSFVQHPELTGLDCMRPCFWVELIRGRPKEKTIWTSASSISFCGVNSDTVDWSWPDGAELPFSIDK

Compound `CC1=C[C@H](c2c(O)cc(/C=C/c3ccc(O)cc3O)cc2O)[C@@H](C(=O)c2ccc(O)cc2O)[C@H](c2ccc(O)cc2O)C1` has an IC50 (Human alphaherpesvirus 1 [1]) of 1.5 µg/mL (≈ 2.57 µM), an IC50 (Human alphaherpesvirus 2 [2]) of 2.5 µg/mL (≈ 4.29 µM) and a selectivity ratio [3] of 32. It also gave a selectivity ratio [4] of 37, an IC50 (Human alphaherpesvirus 1 [5]) of 2.2 µg/mL (≈ 3.78 µM) and a selectivity ratio [6] of 55.
Work on `O=C(O)c1ccccc1/N=N/c1ccc(O)cc1O` yielded a CC50 at 72 h [7] greater than 100 µg/mL and an EC50 (Influenza A virus [8]) of 7.28 µg/mL (≈ 28.2 µM).
With `Oc1cc(O)cc(/C=C/c2ccc(O)c(O)c2)c1` [PICEATANNOL] the pEC50 [9] was 4.67, the CC50 [10] was greater than 400000 nM and the selectivity ratio [11] was greater than 18.7.
With `CC(=O)CC(=O)Nc1ccc(/C=C/c2ccc(-n3nccc3O)cc2S(=O)(=O)O)c(S(=O)(=O)O)c1` the EC90 [12] was 500 nM and the EC90 [13] was 500 nM.
For `Oc1ccc([C@H]2c3c(O)cc(O)cc3[C@@H]3c4c(cc(O)cc4[C@H]4[C@@H](c5ccc(O)cc5)c5c(O)cc(O)cc5[C@H]5c6c(cc(O)cc6[C@H]24)O[C@@H]5c2ccc(O)cc2)O[C@H]3c2ccc(O)cc2)cc1`, the pIC50 (Human alphaherpesvirus 2 [14]) was 5.49, the pIC50 (Human alphaherpesvirus 2 [15]) was 5.49 and the pIC50 (Human alphaherpesvirus 2 [16]) was 5.49.
Work on `Oc1cc(/C=C/c2cc(O)c(O)c(O)c2)cc(O)c1O` yielded a selectivity ratio [17] of 12, a selectivity ratio [18] of 69 and a CC50 [19] of 11900 nM. For the same compound, the CC50 [20] was 20100 nM, the selectivity ratio [21] was 16 and the pEC50 [22] was 6.54. The pEC50 [23] was 5.77 and the pEC50 [24] was 6.13.
Work on `Oc1ccc(C2Oc3ccc(/C=C/c4cc(O)cc5c4C(c4cc(O)cc(O)c4)C(c4ccc(O)cc4)O5)cc3C2c2cc(O)cc3c2C(c2cc(O)cc(O)c2)C(c2ccc(O)cc2)O3)cc1` (configuration not stated) yielded a pEC50 (Hepatitis C virus [25]) of 8.52, a pEC50 (Hepatitis C virus [26]) of 9.00 and a CC50 [27] greater than 10000 nM. The pEC50 (Hepatitis C virus [28]) was 8.52 and the pEC50 (Hepatitis C virus [29]) was 8.22.
Compound `COc1cc(/C=C/c2cc(O)cc(O)c2Cc2ccc(O)c(O)c2)ccc1O` has a selectivity ratio [30] of 32.4, an IC50 (Influenza A virus [31]) of 6.17 µg/mL (≈ 16.2 µM) and a pIC50 [32] of 4.88.
